Data set [1] can be described thus: Cytotoxicity against human MDA-kb2 cells assessed as reduction in cell viability after 18 hrs by Promega cell titer-Glo assay. It is filed as functional. Particulars: MDA-kb2, 18 h, read-out: LC50 (the source's name).
Data set [2] has as its target T1, Heat shock protein HSP 90 (Oryctolagus cuniculus) (UniProt P11500).
T1 sequence (whole entry): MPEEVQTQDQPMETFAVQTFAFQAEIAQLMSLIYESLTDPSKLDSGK
As to the kind of experiment: Inhibition of HSP90 in rabbit reticulocyte lysate at 250 uM after 90 mins by luciferase renaturation assay.

Data set [3] concerns the target T2, Heat shock protein HSP 90 (Oryctolagus cuniculus, UniProt P11500).
T2 sequence (P11500 whole entry): T1 sequence (whole entry)
As to the kind of experiment: Inhibition of HSP90 in rabbit reticulocyte lysate after 90 mins by luciferase renaturation assay.

The target of data set [4] is T3, Heat shock protein HSP 90-beta (Homo sapiens, UniProt P08238). As to the kind of experiment: Inhibition of HSP90 in human MDA-kb2 cells assessed as reduction in glucocorticoid receptor-dependent luciferase expression after 18 hrs by firefly luciferase reporter gene assay. Type of data set: cell-based. On the technique in general: A reporter such as luciferase makes a cellular process visible.
T3 sequence (P08238 whole entry): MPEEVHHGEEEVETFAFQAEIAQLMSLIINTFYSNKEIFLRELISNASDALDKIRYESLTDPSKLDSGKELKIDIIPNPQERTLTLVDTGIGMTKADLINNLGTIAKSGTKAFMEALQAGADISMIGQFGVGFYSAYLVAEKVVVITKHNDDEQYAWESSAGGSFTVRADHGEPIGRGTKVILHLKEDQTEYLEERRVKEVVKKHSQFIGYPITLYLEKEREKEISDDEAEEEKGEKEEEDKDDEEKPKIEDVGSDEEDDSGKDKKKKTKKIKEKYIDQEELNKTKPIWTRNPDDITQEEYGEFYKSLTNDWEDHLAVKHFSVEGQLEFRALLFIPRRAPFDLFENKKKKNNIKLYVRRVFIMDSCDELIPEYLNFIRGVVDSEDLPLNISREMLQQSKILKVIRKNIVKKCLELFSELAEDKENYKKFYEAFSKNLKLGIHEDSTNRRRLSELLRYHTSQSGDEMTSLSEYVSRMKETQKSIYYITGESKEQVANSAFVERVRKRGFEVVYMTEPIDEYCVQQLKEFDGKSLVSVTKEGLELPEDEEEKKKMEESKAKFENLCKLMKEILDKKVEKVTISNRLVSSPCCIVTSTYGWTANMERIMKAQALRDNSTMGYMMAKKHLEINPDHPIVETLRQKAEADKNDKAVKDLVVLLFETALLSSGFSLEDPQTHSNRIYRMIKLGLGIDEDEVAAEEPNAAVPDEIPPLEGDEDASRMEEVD

Data set [5] can be described thus: Solubility in phosphate buffer. Type of data set: physicochemical.
The target of data set [6] is T3, Heat shock protein HSP 90-beta. As to the kind of experiment: Binding affinity to human HSP90 using FITC-labeled compound at 1 nM by fluorescence polarization assay. For orientation: Polarisation of emitted light reports the rotation of a fluorescent probe.
Data set [7] has the same target. As to the kind of experiment: Binding affinity to human HSP90 using FAM-labeled compound by fluorescence polarization assay.
The test system of another data set is MDA-kb2. As to the kind of experiment: Induction of plasma membrane disruption in human MDA-kb2 cells. It is filed as functional, cell-based.

Active and inactive are the calls of the source. The calls are words filed in the database; no cut-off is given here. Bridge positions count the residues as written; N and C are the ends. Square brackets hold non-standard residues; d marks the D form. Peptide text beside a SMILES is read from it. * marks the point of attachment. 5FAM = O=C1OC2(c3ccc(O)cc3Oc3cc(O)ccc32)c2ccc(C(=O)*)cc21; S5 = C=CCCC[C@](C)(N)C(=O)O Where only a bound is given, the exact number is not on record here.

Turning to `COC1=C2C[C@@H](C)C[C@H](OC)[C@H](O)[C@@H](C)/C=C(\C)[C@H](OC(N)=O)[C@@H](OC)/C=C\C=C(/C)C(=O)NC(=CC1=O)C2=O` [GELDANAMYCIN], the CC50 in data set [1] is > 2 µM.
With Ac-DPQTHANRIWRMIKLGLG-NH2, the inhibition entry in data set [2] was “Active”.
On to `CC[C@H](C)[C@H](NC(=O)[C@H](CCCNC(=N)N)NC(=O)[C@H](CC(N)=O)NC(=O)[C@H](C)NC(=O)[C@H](Cc1cnc[nH]1)NC(=O)[C@@H](NC(=O)[C@H](CCC(N)=O)NC(=O)[C@@H]1CCCN1C(=O)[C@H](CC(=O)O)NC(C)=O)[C@@H](C)O)C(=O)N[C@@H](Cc1ccc(O)cc1)C(=O)N[C@@H](CCCNC(=N)N)C(=O)N[C@H]1CCCCNC(=O)C[C@@H](C(=O)N[C@@H](CC(C)C)C(=O)NCC(N)=O)NC(=O)[C@H](CC(C)C)NC(=O)[C@H](CCCCN)NC(=O)[C@H]([C@@H](C)CC)NC1=O` (Ac-DPQTHANRIYRKIKLDLG-NH2; lactam 12-16), for which the results for the IC50 in data set [3] and in data set [4] were 137 µM and > 67 µM, respectively. Also, the CC50 in data set [1] was > 67 µM. Further, the solubility (as a rule, the dissolved amount per volume that the medium holds) in data set [5] was ≥ 100 µM.
For the compound Ac-DPQTHANRIYRLIKLGLG-NH2, the inhibition result in data set [2] is “Active”.
On to Ac-DPQTHANRIYRMIKLLLG-NH2, for which, in data set [2], the inhibition entry was “Active”. Further, in data set [4], the 50% inhibitory concentration (IC50) – broadly, the concentration at which inhibition is half-maximal – was 18.6 µM. For the same compound, the CC50 in data set [1] turned out to be 22.9 µM. In addition, the solubility in data set [5] was ≥ 100 µM.
For `CSCC[C@@H]1NC(=O)[C@H](CCCNC(=N)N)NC(=O)[C@H](Cc2ccc(O)cc2)NC(=O)[C@@H](NC(=O)[C@H](CCCNC(=N)N)NC(=O)[C@H](CC(N)=O)NC(=O)[C@H](C)NC(=O)[C@H](Cc2cnc[nH]2)NC(=O)[C@@H](NC(=O)[C@H](CCC(N)=O)NC(=O)[C@@H]2CCCN2C(=O)[C@H](CC(=O)O)NC(C)=O)[C@@H](C)O)CCCCNC(=O)C[C@@H](C(=O)N[C@@H](CCCCN)C(=O)N[C@@H](CC(C)C)C(=O)NCC(=O)N[C@@H](CC(C)C)C(=O)NCC(N)=O)NC1=O` (Ac-DPQTHANRKYRMDKLGLG-NH2; lactam 9-13), the IC50 in data set [3] is 168 µM; in data set [4] it was > 120 µM. Besides, the CC50 in data set [1] was > 120 µM. Further, the solubility in data set [5] is ≥ 100 µM.
Consider `CC[C@H](C)[C@H](NC(=O)[C@H](CCCNC(=N)N)NC(=O)[C@H](CC(N)=O)NC(=O)[C@H](C)NC(=O)[C@H](Cc1cnc[nH]1)NC(=O)[C@@H](NC(=O)[C@H](CCC(N)=O)NC(=O)[C@@H]1CCCN1C(=O)[C@H](CC(=O)O)NC(C)=O)[C@@H](C)O)C(=O)N[C@@H](Cc1ccc(O)cc1)C(=O)N[C@@H](CCCNC(=N)N)C(=O)N[C@@H](CCSC)C(=O)N[C@H](C(=O)N[C@H]1CCCCNC(=O)C[C@@H](C(N)=O)NC(=O)[C@H](CC(C)C)NC(=O)[C@H](Cc2c[nH]c3ccccc23)NC(=O)[C@H](CC(C)C)NC1=O)[C@@H](C)CC` (Ac-DPQTHANRIYRMIKLWLD-NH2; lactam 14-18), for which the results for the IC50 in data set [3] and in data set [4] were 8.43 µM and > 27 µM, respectively. The CC50 in data set [1] was > 27 µM. Besides, the solubility in data set [5] was ≥ 100 µM.
Regarding Ac-DPQTHANRIYRMIKLGNG-NH2, the inhibition result in data set [2] is “Active”.
As for Ac-FQAEIAQLMSLIINTFY-NH2, the inhibition result in data set [2] is “inactive”.
Same read-out and setting: to Ac-DPQTFANRIYRMIKLGLG-NH2 belongs “Active”.
On to `CC[C@H](C)[C@H](NC(=O)[C@H](CCCNC(=N)N)NC(=O)[C@H](CC(N)=O)NC(=O)[C@H](C)NC(=O)[C@H](Cc1cnc[nH]1)NC(=O)[C@@H](NC(=O)[C@H](CCC(N)=O)NC(=O)[C@@H]1CCCN1C(=O)[C@H](CC(=O)O)NC(C)=O)[C@@H](C)O)C(=O)N[C@@H](Cc1ccc(O)cc1)C(=O)N[C@@H](CCCNC(=N)N)C(=O)N[C@@H](CCSC)C(=O)N[C@H](C(=O)N[C@H]1CCCCNC(=O)C[C@@H](C(=O)O)NC(=O)[C@H](CC(C)C)NC(=O)CNC(=O)[C@H](CC(C)C)NC1=O)[C@@H](C)CC` (Ac-DPQTHANRIYRMIKLGLD-OH; lactam 14-18), for which the IC50 turned out to be 37 µM in data set [3] and 121 µM in data set [4]. Moreover, the CC50 in data set [1] stood at 97 µM. For the same compound, the solubility in data set [5] was ≥ 100 µM.
For Ac-DPQTHANRIYRMIKLGLG-NH2, the inhibition result in data set [2] was “Active”. Also, the IC50 is 233 µM in data set [3] and > 160 µM in data set [4]. In addition, the CC50 in data set [1] was > 160 µM. Further, the solubility in data set [5] is ≥ 100 µM.
With Ac-DPFTHANRIYRMIKLGLG-NH2, the inhibition entry in data set [2] was “Active”.
Take `CO[C@@H]1[C@@H](OC(N)=O)[C@@H](O)[C@H](Oc2ccc3c(O)c(NC(=O)c4ccc(O)c(CC=C(C)C)c4)c(=O)oc3c2C)OC1(C)C` [NOVOBIOCIN]: the inhibition result in data set [2] was “Active”. Moreover, in data set [1], the CC50 was 690 µM.
Consider `CO[C@H]1[C@H](OC(=O)c2ccc(C)[nH]2)[C@H](O)[C@@H](Oc2ccc3c(O)c(NC(=O)c4c[nH]c(C(=O)Nc5c(O)c6ccc(O[C@H]7OC(C)(C)[C@@H](OC)[C@H](OC(=O)c8ccc(C)[nH]8)[C@@H]7O)c(C)c6oc5=O)c4C)c(=O)oc3c2C)OC1(C)C` [COUMERMYCIN A1], for which the IC50 in data set [3] was found to be 28.1 µM; in data set [4], 15.3 µM. Moreover, in data set [1], the CC50 came out at 19.1 µM.
Regarding `CO[C@H]1/C=C\C=C(/C)C(=O)NC2=CC(=O)C(NCCCCCCNC(=S)Nc3ccc(-c4c5ccc(=O)cc-5oc5cc(O)ccc45)c(C(=O)O)c3)=C(C[C@@H](C)C[C@H](OC)[C@H](O)[C@@H](C)/C=C(\C)[C@@H]1OC(N)=O)C2=O`, the result in data set [6] was Active.
Regarding `CC[C@H](C)[C@H](NC(=O)[C@H](CCCNC(=N)N)NC(=O)[C@H](CC(N)=O)NC(=O)[C@H](C)NC(=O)[C@H](Cc1cnc[nH]1)NC(=O)[C@@H](NC(=O)[C@H](CCC(N)=O)NC(=O)[C@@H]1CCCN1C(=O)[C@H](CC(=O)O)NC(=O)c1ccc2c(c1)C(=O)OC21c2ccc(O)cc2Oc2cc(O)ccc21)[C@@H](C)O)C(=O)N[C@@H](Cc1c[nH]c2ccccc12)C(=O)N[C@@H](CCCNC(=N)N)C(=O)N[C@@H](CCSC)C(=O)N[C@H](C(=O)N[C@@H](CCCCN)C(=O)N[C@@H](CC(C)C)C(=O)N[C@@H](Cc1c[nH]c2ccccc12)C(=O)N[C@@H](CC(C)C)C(=O)N[C@@H](CC(=O)O)C(N)=O)[C@@H](C)CC` (5FAM-DPQTHANRIWRMIKLWLD-NH2), the outcome in data set [7] was inactive.
For the compound `CC[C@H](C)[C@H](NC(=O)[C@H](CCCNC(=N)N)NC(=O)[C@H](CC(N)=O)NC(=O)[C@H](C)NC(=O)[C@H](Cc1cnc[nH]1)NC(=O)[C@@H](NC(=O)[C@H](CCC(N)=O)NC(=O)[C@@H]1CCCN1C(=O)[C@H](CC(=O)O)NC(C)=O)[C@@H](C)O)C(=O)N[C@@H](Cc1ccc(O)cc1)C(=O)N[C@@H](CCCNC(=N)N)C(=O)N[C@@]1(C)CCC/C=C/CCC[C@@](C)(C(=O)N[C@@H](CC(C)C)C(=O)NCC(N)=O)NC(=O)[C@H](CC(C)C)NC(=O)[C@H](CCCCN)NC(=O)[C@H]([C@@H](C)CC)NC1=O` (Ac-DPQTHANRIYR[S5]IKL[S5]LG-NH2; staple (E) 12-16), the IC50 in data set [3] was 37.9 µM; in data set [4], 18.8 µM. The CC50 in data set [1] amounted to 26.6 µM. The solubility in data set [5] was ≥ 100 µM.
As for `CC[C@H](C)[C@H](NC(=O)[C@H](CCCNC(=N)N)NC(=O)[C@H](CC(N)=O)NC(=O)[C@H](C)NC(=O)[C@H](Cc1cnc[nH]1)NC(=O)[C@@H](NC(=O)[C@H](CCC(N)=O)NC(=O)[C@@H]1CCCN1C(=O)[C@H](CC(=O)O)NC(C)=O)[C@@H](C)O)C(=O)N[C@@H](Cc1c[nH]c2ccccc12)C(=O)N[C@@H](CCCNC(=N)N)C(=O)N[C@@H](CCSC)C(=O)N[C@H](C(=O)N[C@H]1CCCCNC(=O)C[C@@H](C(N)=O)NC(=O)[C@H](CC(C)C)NC(=O)[C@H](Cc2c[nH]c3ccccc23)NC(=O)[C@H](CC(C)C)NC1=O)[C@@H](C)CC` (Ac-DPQTHANRIWRMIKLWLD-NH2; lactam 14-18), the half-inhibitory concentration (IC50) in data set [3] was found to be 4.11 µM; in data set [4], 0.73 µM. The CC50 in data set [1] was determined as 1.86 µM. For the same compound, the solubility in data set [5] was ≥ 100 µM. In addition, the result with MDA-kb2 was Active.
As for `C=CCCC[C@](C)(NC(=O)[C@H](CC(C)C)NC(=O)[C@H](CCCCN)NC(=O)[C@@H](NC(=O)[C@](C)(CCCC=C)NC(=O)[C@H](CCCNC(=N)N)NC(=O)[C@H](Cc1ccc(O)cc1)NC(=O)[C@@H](NC(=O)[C@H](CCCNC(=N)N)NC(=O)[C@H](CC(N)=O)NC(=O)[C@H](C)NC(=O)[C@H](Cc1cnc[nH]1)NC(=O)[C@@H](NC(=O)[C@H](CCC(N)=O)NC(=O)[C@@H]1CCCN1C(=O)[C@H](CC(=O)O)NC(C)=O)[C@@H](C)O)[C@@H](C)CC)[C@@H](C)CC)C(=O)N[C@@H](CC(C)C)C(=O)NCC(N)=O` (Ac-DPQTHANRIYR[S5]IKL[S5]LG-NH2), the CC50 in data set [1] amounted to 19.1 µM. For the same compound, the solubility in data set [5] was ≥ 100 µM.
With Ac-DPQTHANRIYRMIKLWLG-NH2, the CC50 in data set [1] worked out at 18.9 µM. In data set [5], the solubility is ≥ 100 µM. Moreover, the outcome in the data set on MDA-kb2 was Active.
